{"source": "patent US20140105879A1", "about": "“FLOUR-BASED FUNCTIONAL FOOD” (priority 2011, published 2014)", "test_system": "HMG-CoA reductase", "experiment": "action on the enzyme HMG-CoA reductase (further experimental data)", "excerpt": "Therefore, the functional bread to which vegetable extracts have been added according to the present invention is capable of exerting a functional, salutary action in prevention and treatment of cholesterol and triglyceride levels exceeding the reference values, in addition to an action of protecting the arteries and the cardio-circulatory system and a hepatoprotective and antioxidant action, thanks to the synergistic biochemical actions of the phytocomplexes included in the bread, which enable an enhanced bioactivity thereof to be obtained in the resulting product.", "data": [{"smiles": "CCCCCCCCCCCCCCCCCCCCCCCCCCCCO", "note": "[octacosanol]", "values": [{"measurement": "action on the enzyme HMG-CoA reductase", "value": "reducing the quantity thereof"}]}]}
